# Reference: US9416103B2, “Use of the aminoalkylindole JWH-073-M4 and related compounds as neutral CB1 receptor antagonists for the treatment of alcoholism, drug abuse, obesity, and obesity-related diseases” (The Board of Trustees of the University of Arkansas, priority 2012, dated 2016)
# System: NIH Swiss mice
# Assay: Catalepsy, horizontal bar test
# Type: in vivo, mouse
# Conditions: M4 10 mg/kg i.p. + JWH-018 3 mg/kg i.p.
smiles,measurement,value
CCCCn1cc(C(=O)c2cccc3ccccc23)c2cccc(O)c21 [Compound M4],antagonism of JWH-018-induced catalepsy,no difference
